Results on eight compounds are retold here after PubChem BioAssay (NCI).

Several values for one entry are separate records, joined by “and”; a condition that tells them apart may be missing. Equal entries are not always repeated.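 96-well plates; 48 h exposure; 5 concentrations. Endpoints by linear interpolation between flanking doses. Not reached: highest tested concentration assigned. GI50 = concentration required for 50% inhibition of growth. TGI: concentration producing complete growth inhibition.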

What all share (test): growth of human tumour cells (NCI), 48 h
In test [1] the test system is K-562 leukemia.
The subject of test [2] is MDA-MB-435.
The subject of test [3] is A549 NSCLC.
Test [4] relates to HCT-15 colon.
In test [5] the test system is DU-145 prostate.
The subject of test [6] is SK-MEL-28 melanoma.
Test [7] relates to SK-MEL-2 melanoma.
In test [8] the test system is CCRF-CEM leukemia.
Test [9] has as its system NCI-H522 lung.
In test [10] the test system is HT29 colon.

In the case of `COc1ccc(C(=O)OC2C(OC3C(O)COC(O[C@H]4C[C@H]5[C@@H]6CC=C7C[C@@H](O)CC[C@]7(C)[C@H]6CC[C@]5(C)[C@H]4[C@H](C)C(=O)CCC(C)C)C3OC(N)=O)OCC(O)C2O)cc1` (stereo not given in full), the GI50 is 0.00924 µM in test [1]; 0.0346 µM in test [2]; 0.0773 µM in test [3]; 1.04 µM in test [4]; 0.0285 µM in test [5]; 0.033 µM in test [6]. Further, the GI50 in test [7] is 0.00527 µM; in test [8] it was below 0.003 µM; in [9] it was 0.0658 µM; in test [10], 0.0737 µM. For the same compound, the TGI came to 0.3 µM in [1]; 0.547 µM in test [2]; 4.75 µM in test [3]; 5.44 µM in test [4]; 5.34 µM in test [5]; 0.137 µM in [6]. For the same compound, the TGI in [7] was 0.242 µM; in [8] it was 0.0966 µM; in [9], 0.485 µM; in test [10], 4.27 µM.

In the case of `CC1CCC(NC(=O)N(CCCl)N=O)CC1` (stereo not given), the GI50 was 0.122 µM in [1]; 23.6 µM in [3]; 20.6 µM in test [4]; 18.8 µM in test [6]; 20.4 µM in test [7]; 8.11 µM in test [8]. In test [9], the GI50 was 14.1 µM. Also, the TGI in test [1] was 28.9 µM and 119 µM; in test [2], 65.9 µM; in test [3], 56.5 µM and 149 µM; in test [4], 43.4 µM and 82.8 µM; in [5], 227 µM; in test [6] it was 35.1 µM and 93.1 µM. For the same compound, the TGI in test [7] was 48.1 µM and 91.2 µM; in test [8], 30.3 µM and 55.8 µM; in [9] it was 31.6 µM and 90 µM; in test [10] it was 109 µM.

Take `CN[C@@H](C)C(=O)N[C@H](C(=O)N1CCC[C@H]1C(=O)Nc1snnc1-c1ccccc1)C1CCCCC1`: the GI50 in test [1] is 24.4 µM; in [2] it was 32.1 µM; in test [3], 71.6 µM; in [4], 58.3 µM; in test [5], 65.4 µM; in test [6] it was 23 µM. In addition, the GI50 in [7] was 27.4 µM; in [8], 32.3 µM; in [9] it was 18.3 µM; in test [10], 31.7 µM. Moreover, the TGI was 57.7 µM in test [1]; above 100 µM in test [2]; above 100 µM in [3]; above 100 µM in [4]; above 100 µM in test [5]; 61.6 µM in test [6]. Further, the TGI is above 63.9 µM in [7], above 100 µM in test [8], 53.4 µM in [9] and above 67.3 µM in [10].

Turning to `COc1cc(C[C@H]2c3cc(OC)c(OC)cc3CCN2C)c(Oc2cc3c(cc2OC)-c2c(OC)c(OC)cc4c2[C@H](C3)N(C)CC4)cc1OC`, the GI50 is 1.49 µM in test [1]; 15.6 µM in [3]; 10.8 µM in test [4]; 2.94 µM in [6]; 14.9 µM in test [7]; 6.59 µM in test [8]. Moreover, the GI50 was 5.13 µM in [9] and 4.05 µM in test [10]. Further, the TGI is 15.6 µM and 5.4 µM in test [1]; 12.5 µM in test [2]; 28.2 µM and 29.4 µM in test [3]; 26.4 µM and 23.4 µM in test [4]; 39.6 µM in test [5]; 9.03 µM and 8.73 µM in test [6]. Besides, the TGI in [7] was 18.5 µM and 28.8 µM; in test [8] it was 27.6 µM and 22.6 µM; in test [9], 16.2 µM and 17 µM; in test [10], 17.4 µM and 14.6 µM.

Consider `N#CC(NC12CC3CC(CC(C3)C1)C2)c1ccc2c(c1)OCO2` (stereo not given), for which the TGI in [1], in test [2], in test [3], in [4], in test [5] and in test [6] was above 100 µM each time. The TGI in test [7], in test [8], in test [9] and in test [10] was above 100 µM each time.

Take `COc1ccc(-c2cn(-c3cc(OC)c(OC)c(OC)c3)c(SCc3ccccc3)n2)cc1OC`: the GI50 in [1], in test [2], in test [3], in test [4], in [5] and in test [6] was above 100 µM in each case. For the same compound, the GI50 in [7], in test [8], in test [9] and in test [10] was above 100 µM throughout. For the same compound, the TGI in [1], in [2], in [3], in [4], in [5] and in test [6] was above 100 µM in each case. Moreover, the TGI in [7], in [8], in test [9] and in test [10] was above 100 µM throughout.

For the compound `COc1ccc(-c2c[nH]c(C(=O)O)c2-c2cc(OC)c(OC)c(OC)c2)cc1`, the GI50 is 3.08 µM in test [1]; 1.6 µM in test [2]; 6.61 µM in test [3]; 3.66 µM in test [4]; 4.27 µM in test [5]; above 100 µM in [6]. The GI50 in [7] was 5.45 µM; in test [8] it was 4.08 µM; in test [9], 2.75 µM; in [10] it was 3.29 µM. Besides, the TGI was above 100 µM in [1]; 4.19 µM in [2]; above 100 µM in test [3]; above 100 µM in test [4]; above 100 µM in test [5]; above 100 µM in test [6]. The TGI in test [7], in [8], in test [9] and in [10] was above 100 µM each time.

Consider `COc1ccc2cc(C(=O)/C=C/c3ccc(Cl)cc3Cl)ccc2c1`, for which the GI50 in test [1] is 2.53 µM; in test [2], 4.5 µM; in test [3], 14.1 µM; in test [4] it was 9.17 µM; in test [5] it was 23 µM; in [6] it was 29.9 µM. Moreover, the GI50 in test [7] was 44.4 µM; in test [8] it was 6.74 µM; in test [9], 32.8 µM; in test [10], 6.63 µM. Also, the TGI in test [1] was 14.5 µM; in [2], 17.7 µM; in [3] it was 31.9 µM; in test [4], 29.7 µM; in test [5], 62.1 µM; in [6] it was above 100 µM. Moreover, the TGI in test [7] was 95.7 µM; in test [8], above 100 µM; in test [9] it was 85.5 µM; in test [10], 51.3 µM.
